# Tests used:
# PPAR-gamma = PPAR-gamma mRNA expression in colon of healthy mice; format: in vivo; conditions: healthy mice (n=5); enema during 10 days; 5-ASA 30 mM, R34, E1 and E2 1 mM
# LL37 = LL37 (defensin) mRNA expression in colon of healthy mice; format: in vivo; conditions: for induction of defensin expression / potency in defensin expression induction compared to 5-ASA: conclusion on the in vitro and in vivo results; for colon defensin (LL37) mRNA expression: healthy mice (n=5), enema during 10 days, 5-ASA 30 mM, R34, E1 and E2 1 mM
# Method: […] Post-mortem, total RNA was isolated from whole mice colonic tissues using Rneasy kit (Macherey Nagel, Hoerdt, France) according to the manufacturer's instructions. RNA quantification was performed using spectrophotometry. After treatment at 37° C. for 30 min with 20-50 units of RNase-free DNase I (Roche Diagnostics Corporation, Indianapolis, Ind., USA), oligo-dT primers (Roche Diagnostics Corporation, Indianapolis, USA) were used to synthesize single-stranded cDNA. mRNAs were quantified using SYBR green Master Mix (Applera, Courtaboeuf, France) with mouse specific oligonucleotides for LL37(S:5′-gCTgATTCTTTTgACATCAgCTgTAA-3′ AS:5′-gCCAgCCgggAAATTTTCT-3′) in a GeneAmp Abiprism 7000 (Applera, Courtaboeuf, France). In each assay, calibrated and no-template controls were included. Each sample was run in triplicate. SYBR green dye intensity was analyzed using the Abiprism 7000 SDS software (Applera, Courtaboeuf, France). All results were normalized to the unaffected housekeeping gene β-actin (S:5′-gggTCAgAAggATTCCTATg-3′; AS:5′ ggTCTCAAACATgATCTggg-3′).
# HD-5 = HD-5 defensin gene expression in intestinal epithelial cells (Caco-2), quantitative PCR; format: cell-based, human; conditions: for activation of HD-5, as determined by quantitative PCR analysis: Caco-2 cells
# Method: (§1) Cultured intestinal epithelial cell lines, namely Caco-2 (of human origin) and ICcl2 (of mice origin), were treated with the GSK-3 inhibitor LiCl ([…]) or the phosphatase inhibitor calyculin (50 nM) followed or not by stimulation with the PPAR-gamma agonist such as rosiglitazone (1 microM).
# (§2) The expression of defensin and known target genes of both Wnt and PPAR-gamma signaling pathways were investigated by quantitative real-time PCR. The activation of GSK3, beta-catenin, NF-kappaB, ERK1/2, SAPK/JNK and p38 was measured by specific immunoblotting.
# [1] = system: colonies of Lactobacillus, Enterococcus or Bacteroides; conditions: U.S. Pat. No. 6,326,364; cited from earlier work
# hBD1 = hBD1 defensin mRNA expression in colonic epithelial Caco-2 cells; format: cell-based, human; conditions: stimulated for 24 h
# Description: 5-ASA was purchased at Sigma-Aldrich (St Quentin Fallavier, France). Rosiglitazone was synthesized in the laboratory according to standard procedures. The racemic compound 34 and the two enantiomers of the compound, 34-E1 and 34-E2 were provided by Giuliani SpA (Milano, Italy). Compound were re-suspended in DMEM medium (Gibco) and adjusted at pH=7 if necessary with 10N NaOH.
# The colon carcinoma cell line Caco-2 (ATCC HTB-39) was routinely grown in DMEM supplemented respectively with 10% or 20% heat-FCS, and antibiotics. Cells were grown in monolayers, incubated at 37° C. in 5% CO2 and 95% relative humidity.
# Cell were stimulated by 5-ASA, R34, 34-E1 and 34-E2 for 24 h. Total RNA was isolated from cells using Rneasy kit (Macherey Nagel, Hoerdt, France) according to the manufacturer's instructions. RNA quantification was performed using spectrophotometry. After treatment at 37° C. for 30 min with 20-50 units of RNase-free DNase I (Roche Diagnostics Corporation, Indianapolis, Ind., USA), oligo-dT primers (Roche Diagnostics Corporation, Indianapolis, USA) were used to synthesize single-stranded cDNA. mRNAs were quantified using SYBR green Master Mix (Applera, Courtaboeuf, France) with human specific oligonucleotides for hBD1(S:5′-[…]-3′; AS:5′-TTgTCTGAGATGGCCTCAggTggTAAC-3′) in a GeneAmp Abiprism 7000 (Applera, Courtaboeuf, France). In each assay, calibrated and no-template controls were included. Each sample was run in triplicate. SYBR green dye intensity was analyzed using the Abiprism 7000 SDS software (Applera, Courtaboeuf, France). All results were normalized to the unaffected housekeeping gene of human β-actin (S:5′-TCACCCACACTgTgCCCATCTACg-3′; AS:5′-CAgCggAACCgCTCATTgCCAATg-3′).
# [2] = system: Clostridium bacterial cultures; conditions: agar plates in aerobic and anaerobic conditions; U.S. Pat. No. 6,326,364; cited from earlier work
# cyclin-D1 = experiment: Expression of Wnt/Tcf/beta-catenin target gene cyclin-D1, quantitative real-time PCR; format: cell-based; conditions: stimulation by both calyculin and rosiglitazone
# Method: as §1, §2
# beta-catenin = experiment: Stability of beta-catenin, immunoblotting; format: cell-based; conditions: stimulation by both calyculin and rosiglitazone
# Method: as §1, §2
Compound,colon PPARy mRNA expression (PPAR-gamma),induction of defensin expression (LL37),colon defensin (LL37) mRNA expression (LL37),"activation of HD-5, as determined by quantitative PCR analysis (HD-5)",expression of hBD1 (human defensin-1) (hBD1),also measured
"CO[C@@H](Cc1cccc(N)c1)C(=O)O [Compound 34-E1, (+) 2-S-methoxy-3-(3-aminophenyl)propionic acid]",induced,induction of defensin expression,induced,–,–,potency in defensin expression induction compared to 5-ASA (LL37): higher potency
"COc1ccc(N)cc1C(=O)NO [Compound 14, 5-amino-N-hydroxy-2-methoxybenzamide]",–,–,–,activates HD-5,–,–
"Nc1ccc(O)c(C(=O)O)c1 [Compound 5-ASA, 5-aminosalycilate, reference compound]",induced,induction of defensin expression,induced,activates HD-5,induce the expression of hBD1,"antimicrobial effect against colonies of Lactobacillus, Enterococcus or Bacteroides [1]: No effect; antimicrobial effect against Clostridium bacterial cultures [2]: inhibitory effects"
"COC(Cc1ccc(N)cc1)C(=O)O (racemic) [Compound R34, (±)-2-methoxy-3-(4′-aminophenyl)propionic acid]",induced,induction of defensin expression,induced,–,induce the expression of hBD1,–
calyculin,–,–,–,–,–,expression of Wnt/Tcf/beta-catenin target gene cyclin-D1 (cyclin-D1): markedly decreased; antimicrobial (defensin) gene expression induced by PPAR-gamma activators following co-stimulation (HD-5; co-stimulation by calyculin with rosiglitazone and other PPAR-gamma activators): synergized; stability of the beta-catenin (beta-catenin): markedly decreased
"CO[C@H](Cc1cccc(N)c1)C(=O)O [Compound 34-E2, (−) 2-R-methoxy-3-(3-aminophenyl)propionic acid]",induced,induction of defensin expression,induced,–,induce the expression of hBD1,potency in defensin expression induction compared to 5-ASA (LL37): higher potency; gut defensin expression induction (LL37; summary statement referring to FIGS. 8 & 9): particularly effective
"CCOC(Cc1cccc(N)c1)C(=O)O (racemic) [Compound 40, (±)-2-ethoxy-3-(3′-aminophenyl)propionic acid]",–,–,–,activates HD-5,–,–
"[Cl-].[Li+] [LiCl, reference compound]",–,–,–,–,–,rosiglitazone-induced defensin gene expression (HD-5; co-stimulation with LiCl): blocked
"CCOC(Cc1ccc(N)cc1)C(=O)O (racemic) [Compound 39, (±)-2-ethoxy-3-(4′-aminophenyl)propionic acid]",–,–,–,activates HD-5,–,–
